Results as given in the supplement of paper PMC6723410.

Legend:
GUMC-403 [1] = assay: viability at highest tested concentration (max response) relative to DMSO (% of DMSO control); higher = less cytotoxic; conditions: library / dose series: MIPE library, 11-point 1:3 dilution, 48 h
Method in brief: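 GUMC-403 papilloma cells, derived from a patient and expanded by conditional reprogramming, were dispensed at 700/well into 1536-well plates in 5 μL F + Y medium. A pin tool delivered 23 nL of each compound across an 11-point 1:3 dilution series for 48 h. CellTiter-Glo luminescence, read on a ViewLux, was normalised so that vehicle wells equalled 100% and empty wells 0%. Values report viability at the highest tested concentration relative to vehicle control.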

GUMC-403 [2] = assay: AC50 for reduction of cell viability; higher = less potent; conditions: library / dose series: MIPE library, 11-point 1:3 dilution; 48 h

Structure (SMILES)	viability (GUMC-403 [1]; top concentration 46.1 µM)	AC50 for reduction of cell viability (GUMC-403 [2])	viability (GUMC-403 [1]; top concentration 92.2 µM)
C=CC(=O)Nc1cccc(Nc2nc(NC3CCC(N(C)C)CC3)nc3c2ncn3C(C)C)c1 (stereo unspecified)	8.03	2960 nM	
COc1cc2ncnc(Nc3ccc(F)c(Cl)c3)c2cc1OCCCN1CCOCC1		270 nM	58.7
Cc1nc(NC(=O)N2CCC[C@H]2C(N)=O)sc1-c1csc(C(C)(C)C)n1	30.8	10500 nM	
COC(=O)CCC1=C(C)C2=CC3=NC(=CC4=C(C)C(=C([NH]4)C=C\5N=C(C=C1[NH]2)\C(=C5C)CCC(O)=O)C=C)\C6=C\C=C(/[C@@H](C(=O)OC)[C@@]36C)C(=O)OC	32.5	662 nM	
CC[C@@]1(O)C(=O)OC\C2=C1\C=C\3N(CC4=C3N=C5C=CC=CC5=C4)C2=O	32.3	16600 nM	
CN[S+](=O)([O-])CCc1ccc2[nH]cc(C3CCN(C)CC3)c2c1	70	2350 nM	
O=C1c2ccccc2-[n+]2ccc3c([nH]c4ccccc43)c21	3.22	4180 nM	
CC(C)C1=N[N](C\2=C1C(=O)N\C(=N2)CC3=CC=C(OCCO)C=C3)C4=C(Cl)C=CC=C4Cl	47.9	132 nM	
CC(C)NC[C@@H](C(=O)N1CCN(c2ncnc3c2[C@H](C)C[C@H]3O)CC1)c1ccc(Cl)cc1	76.6	2350 nM	
O=C(Nc1cccc(Nc2ncc(Br)c(NCCc3cnc[nH]3)n2)c1)N1CCCC1	6.39	20900 nM	
C[C@@H]1O[C@@H](O[C@H]\2CC[C@]\3(C)[C@@H]4CC[C@]5(C)[C@@H](CC[C@@]5(O)[C@H]4CCC3=C2)C/6=C/OC(=O)/C=C6)[C@H](O)[C@H](O)[C@@H]1O	44.3	16.6 nM	
COc1ccc(Nc2cc(-c3cnc(N)nc3)nc(N3CCOCC3)n2)cn1	31.5	2960 nM	
Oc1ccc(-c2ccc(-c3cc(Nc4cccc(CNC5CC5)c4)[nH]n3)cc2)c(O)c1	13.7	13200 nM	
Cc1cnc(Nc2ccc(N3CCN(C)CC3)cc2)nc1Nc1cccc([S+](=O)([O-])NC(C)(C)C)c1	30.2	16600 nM	
CC(C)(O)Cn1c(NC(=O)c2ccc(-c3cn[nH]c3)s2)nc2cc(CN3CCOCC3)ccc21	5.55	2350 nM	
C[C@H]1CCC/C=C/C2C[C@H](O)C[C@H]2[C@H](O)/C=C/C(=O)O1 (stereo partly specified)	31.1	10.5 nM	
CC(C)Oc1cc(Nc2nc(N[C@@H](C)c3ccc(F)cn3)ncc2Cl)n[nH]1	58.4	8330 nM	
CC1(C)CC(=O)c2c(C(F)(F)F)nn(-c3ccc(C(N)=O)c(NC4CCC(O)CC4)c3)c2C1 (stereo unspecified)	67.7	296 nM	
Cc1ccc(C(N)=O)cc1Nc1nccc(-c2cn(C(C)C)c3cnccc23)n1	30	8330 nM	
COc1cccc2cc(-c3nc(C4CCC(C(=O)O)CC4)n4ncnc(N)c34)[nH]c12 (stereo unspecified)	59.5	187 nM	
C[C@@H](Oc1ccc2[nH]nc(/C=C/c3cnn(CCO)c3)c2c1)c1c(Cl)cncc1Cl	18.4	16600 nM	
CC(=O)[C@]1(O)Cc2c(O)c3c(c(O)c2[C@@H](O[C@H]2C[C@H](N)[C@H](O)[C@H](C)O2)C1)C(=O)c1ccccc1C3=O	7.29	2350 nM	

Structure (SMILES)	viability (GUMC-403 [1]; top concentration 46.1 µM)	AC50 for reduction of cell viability (GUMC-403 [2])	viability (GUMC-403 [1]; top concentration 92.2 µM)
CCNC(=O)c1noc(-c2cc(C(C)C)c(O)cc2O)c1-c1ccc(CN2CCOCC2)cc1	74.5	296 nM	
CN(C)C1CCN(C(=O)c2ccc(NC(=O)Nc3nc(N4CCOCC4)nc(N4CCOCC4)n3)cc2)CC1	44.5	37.2 nM	
CC[S+](=O)([O-])c1cccc(-c2cc(C(=O)NC3CCN(C)CC3)c(C)c3[nH]c4ncc(C)cc4c23)c1	75.8	4690 nM	
CC1(COc2ccc3c(c2)ncn3-c2ccc3cccc(N4CCC(N)CC4)c3n2)COC1	51.9	10.5 nM	
CC(C)(O)c1cc2nc(-c3cnc(N)nc3)nc(N3CCOCC3)c2s1	33.5	148 nM	
CNC(=O)[C@H](Cc1ccccc1)NC(=O)[C@H](CC(C)C)[C@H](CSc1cccs1)C(=O)NO	68.4	5260 nM	
Clc1ccc(C(c2ccc(Cl)cc2)[n+]2ccn(CC(OCc3ccc(Cl)cc3Cl)c3ccc(Cl)cc3Cl)c2)cc1 (stereo unspecified)	25.1	20900 nM	
COc1cccc2c1C(=O)c1c(O)c3c(c(O)c1C2=O)C[C@@](O)(C(=O)CO)C[C@@H]3O[C@H]1C[C@H](N)[C@H](O)[C@H](C)O1	34.7	1870 nM	
Nc1cccc(-c2cc3c(Oc4cccc(O)c4)ncnc3[nH]2)c1	58	8330 nM	
Nc1nc(NCCNc2ncc(-n3ccnc3)c(-c3ccc(Cl)cc3Cl)n2)ccc1[N+](=O)[O-]	61.4	2350 nM	
Cc1cc(Nc2ncc3c(n2)N(C)C(=O)N(c2cc(NC(=O)c4cccc(C(F)(F)F)c4)ccc2C)C3)n(C)n1	53.5	743 nM	
CCN(CC)CCNC(=O)c1c(C)[nH]c(/C=C2\C(=O)Nc3ccc(F)cc32)c1C		42900 nM	5.58
CC(C)C[C@H](NC(=O)[C@@H](NC(=O)c1cccc(-c2ccccc2)n1)[C@@H](C)O)B(O)O	26.3	1870 nM	
CN[C@@H]1[C@H](O)[C@H](NC)[C@H]2O[C@@]3(O)C(=O)C[C@@H](C)O[C@H]3O[C@@H]2[C@H]1O	13.3	10500 nM	
CCC[S+](=O)([O-])Nc1ccc(F)c(C(=O)c2c[nH]c3ncc(-c4ccc(Cl)cc4)cc23)c1F	54.9	5900 nM	
CC(C)C1=C(O)C=C(O)C(=C1)C/2=N/NC(=O)N2C3=CC4=C(C=C3)[N](C)C=C4	61.4	148 nM	
CC(C)[C@]12O[C@H]1[C@@H]3O[C@@]34[C@@]5(C)CC\C6=C(COC6=O)/[C@@H]5C[C@@H]7O[C@]47[C@@H]2O	22.7	33.2 nM	
O=C(NCCCNc1nc(Nc2cccc(NC(=O)N3CCCC3)c2)ncc1I)c1cccs1	3.39	10500 nM	
COC1=CC=C(C=N1)C/2=C/C3=C(C)N=C(N)N=C3N(C4CCC(CC4)OCCO)C2=O (stereo unspecified)	4.47	264 nM	
Nc1cc(C(F)(F)F)c(-c2cc(N3CCOCC3)nc(N3CCOCC3)n2)cn1	44	1480 nM	
CN1\N=C(N)/C2=C[N]([C@@H]3O[C@H](CO[P](O)(O)=O)[C@@H](O)[C@H]3O)C4=C2C1=NC=N4	57.8	1480 nM	
